Consider 1 compound from patent US20060287395A1, “Pharmaceutical composition for the therapy of lower urinary tract symptoms” (ASTELLAS PHARMA INC., priority 1999, published 2006).

SMILES strings stand for the structures. Counter-ions that a name gives are not always drawn.

The test system of experiment [1] is patients suffering from lower urinary tract symptoms. As to the kind of experiment: Clinical test to patients suffering from lower urinary tract symptoms (four-week test). The class given is in vivo, human. The note with it: total score for subjective symptom and QOL index. The procedure:
A clinical test was carried out under the following conditions using the patients suffering from lower urinary tract symptoms. (cf. Chapter 1: Indexes for Evaluation of Prostatic Hypertrophy in “Guideline for Clinical Test for Urinary Disturbance” published by Iyaku Tosho Shuppan) Subjects: four patients diagnosed as lower urinary tract symptoms, i.e. urinary disturbance without clear organic or neurological abnormality in lower urinary tract (3 males and 1 female). Test drug and administering method:. One capsule containing 0.2 mg of tamsulosin hydrochloride was orally administered once daily after breakfast. Test period: four weeks (28 days) Observed items: Evaluations and measurements were made for the following items before and after the administration. (1) Total score for subjective symptoms Questioning was done to the patients for the following items and the total score was obtained. (2) QOL Index With regard to an index for quality of life (QOL), a questioning that “How do you think if the present urinary condition continues in future as well?” was done as a total diagnosis concerning the urinary disturbance and any of the following evaluations was collected.

The test system is the same in experiment [2]. As to the kind of experiment: Clinical test to patients suffering from lower urinary tract symptoms (twelve-week test). In kind it is in vivo, human. As to conditions: total score for subjective symptom, QOL index and test on functions. The method, then: A clinical test was carried out under the following conditions using the patients suffering from lower urinary tract symptoms. Subjects: eighteen patients diagnosed as lower urinary tract symptoms, i.e. urinary disturbance without clear organic or neurological abnormality in lower urinary tract (15 males and 3 female, age: 57.2±14.2). Test drug and administering method: One capsule containing 0.2 mg of tamsulosin hydrochloride was orally administered once daily after breakfast for four weeks and, after that, the dose after 4 weeks was controlled in consideration of the following criterion, and the dose was orally administered once daily after breakfast. [table] Test period: twelve weeks (84 days) (4 weeks (28 days) for 8 males) Observed items: Evaluations and measurements were made for the following items before and after the administration. (1) Total score for subjective symptoms Total scores for the following <1>˜<7> before and after the administration were obtained in the same way as in Test Example 1. <1> Feel of residual urine, <2> Urination within two hours, <3> Break of urinary stream, <4> Urgency, <5> Force of urinary stream, <6> Straining upon urination and <7> Frequency of urination at night. (2) QOL Index “How do you think if the present urinating state continues in future as well?” (3) Test on Functions <1> maximum urinary stream rate <2> average urinary stream rate

In the case of `CCOc1ccccc1OCCN[C@H](C)Cc1ccc(OC)c(S(N)(=O)=O)c1` [tamsulosin hydrochloride, (R)(−)-5-[2-[[2-(o-ethoxyphenoxy)ethyl]amino]propyl]-2-methoxybenzene-sulfonamide], the “Overall conclusion on efficacy as therapeutic agent for lower urinary tract symptoms” value in experiment [1] and in experiment [2] was “confirmed to be effective” in each case.
